# Assays:
# [1] = target: T1, Polyunsaturated fatty acid 5-lipoxygenase (Homo sapiens, UniProt P09917); assay: Inhibition of human 5-LOX using arachidonic acid as substrate measured as H2DCFDA conversion to 2',7'-dichlorofluorescein preincubated for 10 mins by fluorescence spectrophotometric analysis
# T1 sequence (P09917 whole entry): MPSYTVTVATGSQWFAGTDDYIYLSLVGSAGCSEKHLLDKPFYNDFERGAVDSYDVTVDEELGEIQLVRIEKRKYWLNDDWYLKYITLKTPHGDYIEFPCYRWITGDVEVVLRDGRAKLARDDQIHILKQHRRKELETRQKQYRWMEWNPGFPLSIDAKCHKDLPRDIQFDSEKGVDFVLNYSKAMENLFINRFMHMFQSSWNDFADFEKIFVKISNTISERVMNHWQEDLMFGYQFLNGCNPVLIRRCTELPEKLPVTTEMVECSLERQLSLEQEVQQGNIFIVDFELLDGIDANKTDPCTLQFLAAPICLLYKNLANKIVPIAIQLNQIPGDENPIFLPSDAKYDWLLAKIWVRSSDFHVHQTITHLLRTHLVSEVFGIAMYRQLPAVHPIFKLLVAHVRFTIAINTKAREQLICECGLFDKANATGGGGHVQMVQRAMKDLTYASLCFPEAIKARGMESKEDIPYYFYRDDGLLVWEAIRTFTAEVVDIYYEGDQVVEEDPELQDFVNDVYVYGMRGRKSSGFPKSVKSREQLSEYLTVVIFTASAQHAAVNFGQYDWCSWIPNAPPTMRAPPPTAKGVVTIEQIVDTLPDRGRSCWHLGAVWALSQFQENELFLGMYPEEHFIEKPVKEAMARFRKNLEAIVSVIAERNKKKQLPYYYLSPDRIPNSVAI
# Prostaglandin E synthase = target: T2, Prostaglandin E synthase (Homo sapiens, UniProt O14684); assay: Inhibition of microsomal PGES-1 (unknown origin) assessed as PGH2 conversion to PGE2 after 1 min by enzyme immunoassay
# T2 sequence (O14684 whole entry): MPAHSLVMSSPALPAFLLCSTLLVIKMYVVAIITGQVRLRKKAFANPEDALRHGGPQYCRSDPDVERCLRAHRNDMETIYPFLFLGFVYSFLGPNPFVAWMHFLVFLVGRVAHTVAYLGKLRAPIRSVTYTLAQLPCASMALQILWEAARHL
Structure (SMILES),IC50 [1] [µM],IC50 (Prostaglandin E synthase) [µM]
COc1ccc(NC2=NS(=O)(=O)c3cc([N+](=O)[O-])ccc32)cc1OC,23.5,> 50
O=[N+]([O-])c1ccc2c(c1)S(=O)(=O)N=C2Nc1cccc2c(Br)cccc12,> 50,> 50
O=[N+]([O-])c1ccc2c(c1)S(=O)(=O)N=C2Nc1cccc(-c2ccccc2)c1,0.7,> 50
O=[N+]([O-])c1ccc2c(c1)S(=O)(=O)N=C2Nc1cccc2ccccc12,0.6,2.1
O=[N+]([O-])c1ccc2c(c1)S(=O)(=O)N=C2NCc1cccc(Br)c1,> 50,> 50
O=[N+]([O-])c1ccc2c(c1)S(=O)(=O)N=C2Nc1cccc2c1OCO2,14.9,> 50

# More lines, now with the values ahead:
IC50 [1] [µM],IC50 (Prostaglandin E synthase) [µM],Structure (SMILES)
0.06,> 50,CC(C)(C)c1cccc(NC2=NS(=O)(=O)c3cc([N+](=O)[O-])ccc32)c1
> 50,> 50,Cc1ccccc1NC1=NS(=O)(=O)c2cc([N+](=O)[O-])ccc21
0.25,> 50,CC(C)c1cccc(NC2=NS(=O)(=O)c3cc([N+](=O)[O-])ccc32)c1
0.24,8.8,COc1cccc(NC2=NS(=O)(=O)c3cc([N+](=O)[O-])ccc32)c1
3.4,7.3,O=[N+]([O-])c1ccc2c(c1)S(=O)(=O)N=C2Nc1cccc(Br)c1
> 50,0.15,O=[N+]([O-])c1ccc2c(c1)S(=O)(=O)N=C2Nc1cccc2ncccc12
12.3,16.9,COc1ccc(NC2=NS(=O)(=O)c3cc([N+](=O)[O-])ccc32)cc1
8.6,23.6,O=[N+]([O-])c1ccc2c(c1)S(=O)(=O)N=C2Nc1ccccc1
> 50,5.7,O=[N+]([O-])c1ccc2c(c1)S(=O)(=O)N=C2Nc1cccc(Cl)c1
